Tests used:
[1] = system: EpH4-A6, FKBR3, MDA-MD-468 and MCF-7 cells; assay: cytoblot of QR on transformed cells; format: cell-based
Source text: (§1) The compound was included in cytoblot experiments, as described above, on the following cells: EpH4-A6 and control EpH4-EV cells and the following human breast cancer cell lines: FKBR3 (Neu positive cells); MDA-MD-468 (which over-express EGFR); and MCF-7 (which over-express Her3/ErbB3; EGFR and Neu).

control EpH4-EV cells = assay: cytoblot of QR on normal cells; format: cell-based, mouse
Source text: as §1

[2] = system: mitochondria of cancer cells; assay: accumulation of QR in mitochondria; format: cell-based
A6 cells = assay: effect of FCCP and valinomycin on F16 accumulation in mitochondria; format: cell-based, mouse; settings: F16 3 μM
Procedure: In order to test the contribution of the mitochondrial membrane potential (ΔΨm) to the accumulation of F16 in mitochondria, the effect of FCCP, an uncoupler of mitochondrial respiration, and the effect of valinomycin, a potassium ionosphore, were tested.
The effect of the protonophore FCCP on F16 accumulation was performed as previously done for the colocalization experiments described above. EpH4-A6 cells preincubated with F16 (3 μM) were subsequently treated with 5 μM FCCP. Images were acquired immediately before, 1 min and 5 min after FCCP addition and visulized under 40× magnification.

Structure (SMILES) | proliferation of transformed cells at 10 nM ([1]; 10 nM) | proliferation of transformed cells at 100 nM ([1]; 100 nM) | concentration inhibiting proliferation of transformed cells (as low as) ([1]; all of the transformed cells tested) [nM] | concentration inhibiting normal cells (control EpH4-EV cells) [µM] | accumulation in mitochondria [2] | effect of preincubation on F16 entry and accumulation in mitochondria (A6 cells)
CC[n+]1c(/C=C/c2ccc(N(C)C)cc2)ccc2ccccc21 [QR, Quinaldine Red] | partially inhibited | essentially completely inhibited | 10 | ≥ 10 | accumulate in mitochondria of cancer cells and essentially not in mitochondria of normal cells | –
N#CC(C#N)=NNc1ccc(OC(F)(F)F)cc1 [FCCP] | – | – | – | – | – | retarded the entry and greatly reduced the overall accumulation of F16 inside mitochondria
CC(C)[C@@H]1NC(=O)[C@H](C)OC(=O)[C@@H](C(C)C)NC(=O)[C@@H](C(C)C)OC(=O)[C@H](C(C)C)NC(=O)[C@H](C)OC(=O)[C@@H](C(C)C)NC(=O)[C@@H](C(C)C)OC(=O)[C@H](C(C)C)NC(=O)[C@H](C)OC(=O)[C@@H](C(C)C)NC(=O)[C@@H](C(C)C)OC1=O [valinomycin] | – | – | – | – | – | retarded the entry and greatly reduced the overall accumulation of F16 inside mitochondria

From patent US20040097408A1, “Compounds regulating cell proliferation and differentiation” (priority 2001, published 2004)
